In PMC7034945 (RSC Advances, 2019):
Like-named read-outs stand apart in the source and are kept apart here.

What was measured:
[1] = test system: HIV-1 NL4-3 virus; test: Anti-HIV-1 activity, multicycle assay with HIV-1 NL4-3 in TZM-bl cells; assay type: cell-based; settings: for anti-HIV-1 activity (in words): TZM-bl cells, at the test concentration
[2] = test system: TZM-bl cells; settings: uninfected TZM-bl cells, NA = no cytotoxicity at the test concentration
[3] = in vitro; settings: human
[4] = Table 2, HIV-1 NL4-3, TZM-bl cells, NA = no anti-HIV-1 activity at the test concentration
[5] = Human immunodeficiency virus 1, NL43, TZM-bl
[6] = Caco-2, pH 7.4, Mean Papp A to B, Caco-2, 2 μM, 2 hours, pH 7.40
[7] = Caco-2, pH 7.4, Rank Papp, Caco-2, A to B, permeability class
[8] = Caco-2, pH 7.4, apparent permeability (Papp), Caco-2 cells

Which results are given for “3-(1-(2-(Hydroxymethyl)-5-(5-methyl-2,6-dioxo-1,2,3,6-tetrahydropyridin-3-yl)tetrahydrofuran-3-yl)-1H-1,2,3-triazol-4-yl)-N-((S)-1-((4-methoxyphenyl)(methyl)amino)-1-oxo-3-phenylpropan-2-yl)benzamide [III-15o]”?
EC50 [1, 4]: > 29.4 µM; CC50 ([2]; Table 2): > 29.4 µM

Which EC50 [1, 5] does the source give for COc1ccc(N(C)C(=O)[C@H](Cc2ccccc2)NC(=O)c2cccc(-c3cn(Cc4ccc(S(N)(=O)=O)cc4)nn3)c2)cc1 [III-15f, (S)-N-(1-((4-Methoxyphenyl)(methyl)amino)-1-oxo-3-phenylpropan-2-yl)-3-(1-(4-sulfamoylbenzyl)-1H-1,2,3-triazol-4-yl)benzamide] here?
Its EC50 is greater than 32 µM.

With COc1ccc(N(C)C(=O)[C@H](Cc2ccccc2)NC(=O)c2cccc(-c3cn(CCCc4ccccc4)nn3)c2)cc1 [III-15g, (S)-N-(1-((4-Methoxyphenyl)(methyl)amino)-1-oxo-3-phenylpropan-2-yl)-3-(1-(3-phenylpropyl)-1H-1,2,3-triazol-4-yl)benzamide] as the compound, how does the EC50 [1, 5] read?
The EC50 was greater than 34.9 µM.

For COc1ccc(N(C)C(=O)[C@H](Cc2ccccc2)NC(=O)c2cccc(-c3cn(Cc4ccc5ccccc5c4)nn3)c2)cc1 [III-15j, (S)-N-(1-((4-Methoxyphenyl)(methyl)amino)-1-oxo-3-phenylpropan-2-yl)-3-(1-(naphthalen-2-ylmethyl)-1H-1,2,3-triazol-4-yl)benzamide], which EC50 [1, 5] is on record?
Its EC50 is greater than 33.6 µM.

With COc1ccc(N(C)C(=O)[C@H](Cc2ccccc2)NC(=O)c2cccc(-c3cn(Cc4cccc5ccccc45)nn3)c2)cc1 [III-15k, (S)-N-(1-((4-Methoxyphenyl)(methyl)amino)-1-oxo-3-phenylpropan-2-yl)-3-(1-(naphthalen-1-ylmethyl)-1H-1,2,3-triazol-4-yl)benzamide] as the compound, how does the EC50 [1, 5] read?
The EC50 was greater than 33.6 µM.

For COCCc1ccc(OCC(O)CNC(C)C)cc1 (stereo not drawn) [Metoprolol], which Papp A→B [3, 6] is on record?
Its Papp A→B is 16.4 ×10⁻⁶ cm/s.

And the Papp A→B [3, 7]?
Its Papp A→B is greater than 2.5 ×10⁻⁶ cm/s.

What about the Papp A→B [3, 8] of the same compound?
Its Papp A→B is 16.4 ×10⁻⁶ cm/s.

For CC(C)(C)NCC(O)COc1cccc2c1CC(O)C(O)C2 (stereo not drawn) [Nadolol], which Papp A→B [3, 6] is on record?
Its Papp A→B is 0.08 ×10⁻⁶ cm/s.

And the Papp A→B [3, 7]?
Its Papp A→B is less than 0.5 ×10⁻⁶ cm/s.

What about the Papp A→B [3, 8] of the same compound?
Its Papp A→B is 0.08 ×10⁻⁶ cm/s.

Which “anti-HIV-1 activity (in words)” value [1] does the source give for “(S)-N-(1-((4-Methoxyphenyl)(methyl)amino)-1-oxo-3-phenylpropan-2-yl)-3-(1-(naphthalen-1-ylmethyl)-1H-1,2,3-triazol-4-yl)benzamide [III-15l]” here?
The value was “lost anti-HIV-1 activity completely”.

With “(S)-N-(1-((4-Methoxyphenyl)(methyl)amino)-1-oxo-3-phenylpropan-2-yl)-3-(1-(quinolin-2-yl)-1H-1,2,3-triazol-4-yl)benzamide [III-15i]” as the compound, how does the EC50 [1, 4] read?
Its EC50 is greater than 34.3 µM.

And the CC50 ([2]; Table 2)?
The CC50 was greater than 34.3 µM.

For “(S)-N-(3-(3,5-Difluorophenyl)-1-((4-methoxyphenyl)(methyl)amino)-1-oxopropan-2-yl)-3-(1-(quinolin-2-yl)-1H-1,2,3-triazol-4-yl)benzamide [II-10i]”, which “anti-HIV-1 activity (in words)” value [1] is on record?
Its value is “exhibited anti-HIV-1 activity at the test concentration”.

What about the EC50 [1, 4] of the same compound?
Its EC50 is 21.5 ± 4.53 µM.

And the CC50 ([2]; Table 2)?
Its CC50 is greater than 32.3 µM.

Which “anti-HIV-1 activity (in words)” value [1] does the source give for “Ethyl (S)-2-(4-(3-((1-((4-methoxyphenyl)(methyl)amino)-1-oxo-3-phenylpropan-2-yl)carbamoyl)phenyl)-1H-1,2,3-triazol-1-yl)acetate [III-15n]” here?
The value was “lost anti-HIV-1 activity completely”.

And the EC50 [1, 4]?
The EC50 was greater than 36 µM.

And the CC50 ([2]; Table 2)?
Its CC50 is greater than 36 µM.

With “Methyl (S)-2-(4-(3-((1-((4-methoxyphenyl)(methyl)amino)-1-oxo-3-phenylpropan-2-yl)carbamoyl)phenyl)-1H-1,2,3-triazol-1-yl)acetate [III-15m]” as the compound, how does the “anti-HIV-1 activity (in words)” value [1] read?
Its value is “lost anti-HIV-1 activity completely”.

Which EC50 ([1]; Table 1, HIV-1 NL4-3, TZM-bl cells, NA = no anti-HIV-1 activity at the test concentration) does the source give for “Methyl (S)-4-(4-((3-(3,5-difluorophenyl)-1-((4-methoxyphenyl)(methyl)amino)-1-oxopropan-2-yl)carbamoyl)-1H-1,2,3-triazol-1-yl)benzoate [I-8p]” here?
The EC50 was 14.2 ± 3.46 µM.

And the CC50 ([2]; Table 1)?
Its CC50 is greater than 18.2 µM.
